{"source": "patent US20100209495A1", "about": "“GRANULATES, PROCESS FOR PREPARING THEM AND PHARMACEUTICAL PRODUCTS CONTAINING THEM” (Mylan Laboratories, Inc., priority 2008, published 2010)", "origin": "cited, not measured here", "conditions": "at 37° C.", "data": [{"compound": "CC(O)(CS(=O)(=O)c1ccc(F)cc1)C(=O)Nc1ccc(C#N)c(C(F)(F)F)c1", "note": "(stereo not shown) [bicalutamide, N-[4-cyano-3-(trifluoromethyl)phenyl]-3-(4-fluorophenyl) sulfonyl-2-hydroxy-2-methyl-propanamide]", "values": [{"measurement": "water solubility", "value": 5, "unit": "mg/1000 ml"}]}]}
